Assay: gradient 5% acetonitrile 3 min, to 50% in 2 min, to 85% in 15 min, held 3 min, 100 µL/min
Conditions: column: Zorbax Extend-C18 2.1 x 50 mm; eluents: water / acetonitrile, 0.1% formic acid
Procedure, shortened: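 Pure standards were run in mixtures of ~100 molecules by HPLC coupled to a quadrupole time-of-flight mass spectrometer. The column was a Zorbax Extend-C18 (2.1 × 50 mm, 1.8 μm) at 100 μL/min, with water and acetonitrile each containing 0.1% formic acid, in positive and negative ionization mode. Dead and dwell volumes were 40 μL and 900 μL. Retention time was taken from computationally picked adduct peaks, each manually inspected, with data collected over 3 months.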

SMILES | RP-LC retention time [s]
Cc1nc(-c2ccc(-n3cc(C(=O)Nc4ccc(Br)cc4F)c(C)n3)cc2)no1 | 962
COc1ccc(-c2noc(-c3ccc(NC(=O)COc4ccc(Br)cc4)cc3)n2)cc1 | 1280
Cc1ccc(CNC(=O)CCc2nnc3c4cc(-c5ccccc5)nn4ccn23)cc1C | 815
Cc1nnc(-c2cc(NC(=O)c3cccc(Br)c3)c(C)s2)o1 | 938
O=C(NC(C(=O)N1CCCc2ccccc21)c1ccccc1)c1cnccn1 (stereo not drawn) | 932
Cc1ccc2nc(-c3cc(Br)ccc3F)c(Nc3ccc4c(c3)OCO4)n2c1 | 762
CCOC(=O)CCc1c(C)c2c(O)cc(O)cc2oc1=O | 701
CC(C)CC(=O)Nc1ccc2c(c1)nc(CN1CCCC1)n2C(C)C | 612
COc1ccccc1C(=O)Nc1cnc(-c2cccc(Cl)c2)nc1 | 1180
Cc1cccc(-n2nnc(C(=O)O)c2-c2ccncc2)c1 | 620
Cc1ccc(C2CC(=O)N(c3ccc(F)cc3F)C(=O)C2)cc1 | 987
CC(C)(C)c1ccc(-c2csc(N)n2)cc1 | 666
CCC1=C(c2ccc(C)cc2)S(=O)(=O)N=C1N1CCC(C(=O)N(C)Cc2ccco2)CC1 | 894
CCC(=O)Nc1nc(-c2ccc(C(C)C)cc2)cs1 | 1000
Cc1cccc(NC(=O)CN2C(=O)CCS(=O)(=O)c3ccccc32)c1C | 760
Cc1ccc(CSc2ccc(-n3nc4c(c3C)CCC4)nn2)cc1 | 1370
Cc1ccnc(NS(=O)(=O)c2ccc(NC(=O)C3=COCCO3)cc2)n1 | 603
COc1ccc(C(=O)N2C[C@@H](Oc3cccnc3)C[C@H]2C(N)=O)c(OC)n1 | 572
CCN1C(=O)COc2ccc(-c3noc(-c4ccccc4F)n3)cc21 | 1070
COc1ccc(S(=O)(=O)CCC(=O)N2CCCC2c2nc(-c3ccc(C)cc3)no2)cc1 (stereo not drawn) | 951
CCOc1ccc(CC(=O)N2C[C@@H]3C[C@H](NC(=O)c4cccs4)[C@H]2C3)cc1 | 782
COc1ccc(NS(=O)(=O)c2cc(-c3[nH]ncc3C(=O)N(C)C)oc2C)c(C)c1 | 681
COc1ccc2c(c1)C1(CCN(C(=O)Nc3ccccc3F)C1)C(=O)N2 (stereo not drawn) | 701
CCCS(=O)(=O)NCC1CC(=O)N(c2ccc(F)cc2)C1 (stereo not drawn) | 669
COc1ccc(CN2C=C(C(=O)OCc3noc(-c4ccc(C)c(C)c4)n3)C(C)=NS2(=O)=O)cc1 | 1230

SMILES | RP-LC retention time [s]
Cc1c(-c2cccc(NC(=O)c3cccs3)c2)nc2ncccn12 | 638
N#Cc1cnn(-c2cccc(Cl)c2)c1-n1cccc1 | 1070
OC(c1ccccc1)(c1ccccc1)C1CN2CCC1CC2 (stereo not drawn) | 733
O=C(CCn1cnc2cc(-c3noc(-c4ccc(F)c(F)c4)n3)ccc21)N1CCOCC1 | 740
CCn1cc(-c2nc(CC(=O)NCc3ccc(Cl)cc3)cs2)c2cccnc21 | 904
Cc1cc(C)cc(N2CCC(NC(=O)c3ccc(Cl)s3)C2=O)c1 (stereo not drawn) | 956
CNC(=O)NC1CCN(c2ccc(C)c(C)c2)C1=O (stereo not drawn) | 654
O=C(NCCCn1nc(-c2ccc(F)cc2)ccc1=O)Nc1cc(Cl)ccc1Cl | 566
CC(=O)Nc1ccc(Nc2nc3ccccc3nc2NS(=O)(=O)c2cccs2)cc1 | 794
COc1ccc(OC)c(Nc2c(-c3nc(C)no3)cnc3nc(C)ccc23)c1 | 610
Cn1cc(-c2nc(C(=O)N3CCc4ccccc43)cs2)c2cccnc21 | 1010
CCOc1ccc(CNC(=O)c2sccc2S(=O)(=O)N(C)c2ccc(OCC)cc2)cc1 | 1170
C[C@]12CC[C@H](O)CC1=CC[C@@H]1[C@@H]2CC[C@]2(C)c3[nH]ncc3C[C@@H]12 | 796
COc1ccc(C)cc1NC(=O)Cn1c(C)nc2c(sc3nc(-c4ccccc4)ccc32)c1=O | 1110
COc1cccc(NC(=O)C2CCN(S(=O)(=O)c3ccc4c(c3)sc(=O)n4C)CC2)c1 | 845
Cc1cc(F)ccc1NC(=O)c1nnn(-c2ccc(F)cc2)c1-c1cccnc1 | 915
O=C1CC(c2noc(CCc3ccccc3)n2)CN1c1ccccc1 (stereo not drawn) | 956
CCn1nnc2ccc(-c3noc(-c4ccc(C)cc4)n3)cc21 | 1140
CCn1nccc1C(=O)Nc1ccc(-n2cnnn2)cc1 | 652
COc1cccc(C2Cn3nnc(-c4nc(-c5ccc(SC)cc5)no4)c3CO2)c1 (stereo not drawn) | 1200
CCOC(=O)Cc1csc(NC(=O)Cc2cc(-c3cc4ccccc4o3)on2)n1 | 891
COc1cccc(CNC(=O)C2(C)CCCN(S(=O)(=O)c3ccc(Cl)cc3)C2)c1 (stereo not drawn) | 932
O=C(Nc1nc(-c2ccc(Br)s2)cs1)c1ccc([N+](=O)[O-])s1 | 1120
CN1C(=O)c2cccnc2Sc2cc(NC(=O)Cc3cccc(Cl)c3)ccc21 | 831

Other lines, results leading:

RP-LC retention time [s] | SMILES
685 | O=C(c1cccs1)N1CCC(n2c(-c3ccoc3)nc3cccnc32)C1 (stereo not drawn)
664 | CCCn1cc(C(=O)N2CCCC2)c2nn(-c3ccccc3)c(=O)c-2c1
681 | O=C(NCC(c1cccnc1)N1CCc2ccccc2C1)C(=O)NC1CCCCCC1 (stereo not drawn)
838 | O=C(Cc1csc(Nc2ncccn2)n1)N1CCN(c2cccc(Cl)c2Cl)CC1
632 | Cn1cc(C(=O)N2CCN(C3CCCCC3)CC2)c2cccnc21
834 | O=C(c1cccs1)N1CCN(c2ccc(=O)n(-c3ccc(Cl)cc3)n2)CC1
610 | CCOC(=O)c1[nH]c2ccc(OC)cc2c1NC(=S)N1CCN(c2ccccn2)CC1
787 | O=C(c1ccc2c(c1)CCCN2S(=O)(=O)c1ccccc1)N1CCOCC1
786 | O=C1NCCCCCCN(C(=O)c2ccsc2)[C@H]2CCCC[C@@H]12
866 | COc1ccc(NC(=O)N2CCCC(C)(C(=O)NCc3ccccc3C)C2)c(OC)c1 (stereo not drawn)
673 | CCc1noc2nc(CCC(=O)NCCCN3CCCC(C)C3)nc(N3CCCCC3)c12 (stereo not drawn)
626 | CN1C(=O)C(CC(=O)N2CCCC2)Sc2ncccc21 (stereo not drawn)
614 | Cn1c(N2CCN(S(=O)(=O)c3ccc(Cl)s3)CC2)nc2ccccc21
707 | Cc1ccc2[nH]c(C(=O)NC3CC3)c(N3CCCC3=O)c2c1
691 | O=C(CCC1CCCC1)N1CCN(c2nnc3c(Cl)cccn23)CC1
640 | CCN(Cc1ccccc1)Cc1nc(-c2ccc(N3CCCC3)nc2)no1
952 | O=C(Cc1csc2nc(-c3cccc(Br)c3)cn12)NC1CCCCC1
648 | Cc1cccc(NC(=O)C2CCN(S(=O)(=O)c3cc(C(=O)N4CCOCC4)cs3)CC2)n1
618 | CCOc1ccccc1NC(=O)N1CCCC(Cn2c(C)nc3cccnc32)C1 (stereo not drawn)
841 | CCCOc1ccc(CNC(=O)C2CCN(c3ncnc4c3oc3ccccc34)CC2)cc1

RP-LC retention time [s] | SMILES
684 | CCOc1ccccc1N1CCN(c2cc(C(=O)O)c3cc(NC(=O)C(C)C)ccc3n2)CC1
573 | CC(C)(C)C(=O)Nc1ccc(N2CCN(CC(=O)N3CCCC3)CC2)cc1C(=O)O
617 | Cc1c(C2CCN(C(=O)c3nccc4ccccc34)CC2)noc1N
556 | O=C(NCCCN1CCCC1)C1CCN(c2nnc3ccc(Cl)cn23)CC1
1070 | COc1ccc(C2CC(=O)c3c([nH]c(C(=O)OC4CCCCC4)c3C)C2)cc1OC (stereo not drawn)
690 | O=S(=O)(c1ccc(-c2nnc(C3CCC3)o2)o1)N1CCN(C2CCCCC2)CC1
659 | CC(C)CN1C(=O)c2ccccc2C(C(=O)NCc2cccnc2)C12CCCCC2 (stereo not drawn)
704 | CCOc1ccc(NC(=O)N2CCC(c3nc(C(=O)N4CCOCC4)c(C)o3)CC2)cc1
598 | O=C(CC1CCN(C(=O)NC2CCCCC2)CC1)N1CCN(c2ccccn2)CC1
727 | CCOc1ccc(NC(=O)N2CCN(c3cc(C)nc(Nc4ccc(C)cc4)n3)CC2)cc1
784 | CC(C)Cn1cc(S(=O)(=O)N2CCc3ccccc3C2)c2cccnc21
842 | COc1ccc(C(=O)N2CCCC(COc3ccc(C(=O)NC(C)C)cc3)C2)c(C)c1 (stereo not drawn)
606 | O=C(NCCCN1CCCCC1)C1=C2CCCN2c2ccc(F)cc2S1(=O)=O
594 | c1ccc(-c2nc(-c3ccnc(N4CCCC4)c3)no2)nc1
621 | CC(C)CN1CCN(C(=O)c2ccc3[nH]c4c(c3c2)CN(C(=O)C2CCC2)CC4)CC1
987 | Cc1ccc(-n2c(N3CCCC(C(=O)NCCCc4ccccc4)C3)nc3ccsc3c2=O)cc1 (stereo not drawn)
691 | COCCN(C)Cc1ccc(CC2CCN(C(=O)C3(c4ccc(OC)cc4)CC3)CC2)cc1
885 | Cc1ccccc1Cn1c(CN2CCC(C(=O)NC3CCCCCC3)CC2)cc2ccccc21
656 | Cc1ccc(CCN2CC(C(=O)N3CCN(c4cc(=O)n(C)c(=O)n4C)CC3)CC2=O)cc1 (stereo not drawn)

Reference: the METLIN SMRT retention time set (Domingo-Almenara et al. 2019)
